Measurements as given in US10092566B2, “Composition for controlling a gut immunity and use thereof” (SEOUL NATIONAL UNIVERSITY R&DB FOUNDATION, priority 2013, dated 2018).
Entries after “also recorded” stand apart in the source; their conditions may differ.

What was measured:
germ-free Drosophila = test: Survival duration of germ-free flies on uracil-containing media; assay type: in vivo
Description: Control Drosophila and PLCβ-DUOX pathway-mediated mutated Drosophila (PLCβ^−/− and DUOX-RNAi) were used in the experiment. It is known that PLCβ^−/− and DUOX-RNAi flies have a short life span under conventional rearing conditions but a normal life span under germ-free conditions (Ha et al., Nat Immunol 10, pp. 949-957, 2009). Therefore, to examine the effects of uracil on the survival rate of genetically different Drosophila, germ-free animals were used. Germ-free animals were reared in germ-free media containing 1 nM of uracil. Germ-free animals were moved to a newly sterilized bottle that had germ-free media containing uracil every 4 or 5 days. Drosophila remained germ-free throughout the entire experimental processes.

p38 = p38 activation by phospho-p38 immune staining of midgut; assay type: in vivo, Drosophila; conditions: uracil 20 nM for 2 hours
Protocol: To examine uracil-induced p38 activation, a 5% sucrose solution containing 20 nM of uracil was orally administered to genetically different adult Drosophila (5 to 6 days old) for 2 hours. Midguts were dissected in PBS and fixed with 4% paraformaldehyde for 15 minutes. The midguts were washed three times with PBS containing 0.1% of Triton X-100 for 5 minutes and were cultured in the above solution with additional 5% cow blood serum albumin for 1 hour. Next, the sample was cultured with additional phospho-specific anti-p38 antibody (1:500 dilution; Millipore, Milford, Mass., USA) at 4° C. for 16 hours. The sample was washed five times with PBS containing 0.1% Triton X-100 for 5 minutes and cultured at room temperature for 20 minutes after adding secondary antibodies (1:500 dilution; Alexa Fluor 568 goat anti-rabbit IgG; Invitrogen, Carlsbad, Calif., USA). After washing the sample three times with PBS containing 0.1% Triton X-100 for 5 minutes, the sample was mounted with mounting buffer solution (Vectorshield, Vector Laboratories Inc., Burlingame, Calif., USA) and was analyzed by LSM 700 confocal microscopy (Carl Zeiss, Oberkochen, Germany)

E. carotovora-pyrE::Tn5 = test: Bacterial persistence in the midgut (CFU); assay type: in vivo, Erwinia carotovora; conditions: coingestion of 1 nM uracil with E. carotovora-pyrE::Tn5; CFU 6 hours after ingestion
Protocol: To measure gut sustainability of E. carotovora strains (E. carotovora, E. carotovora-pyrE::Tn5, and E. carotovora-pyrE::Tn5-pyrE), a 5% sucrose solution containing approx. 10^10 cells of E. carotovora strains were orally administered to female adult Drosophila (5 to 6 days old) for 2 hours. Midguts were dissected at 6 hours after ingestion. Midguts, posterior guts, and crops of which the surfaces were sterilized were homogenized and diluted accordingly. These were smeared on a Luria-Bertani agar plate, and some of colony-forming units (CFUs) were obtained from each midgut. During the recovery experiment, the coingestion of E. carotovora-pyrE::Tn5 (+uracil) and 1 nM of uracil or the expression of an E. carotovora-pyrE::Tn5 strain, which was genetically recovered by the expression of functional pyrE genes (+pyrE), was utilized.

IMD pathway = test: Gut IMD pathway activation (Cec expression, qPCR); assay type: in vivo, Drosophila; conditions: uracil 20 nM, 4 hours
Protocol: Fluorescent RT-PCR was conducted to quantify gene expression and double-stranded DNA dye and SYBR green (Perkin Elmer, Waltham, Mass., USA) were used. To detect target gene trascriptomes, Cecropin (Sense, 5′-ATGAACTTCTACAACATCTTCG-3′ (SEQ ID NO: 5); Antisense, 5′-GGCAGTTGCGGCGACATTGGCG-3′ (SEQ ID NO: 6)), Diptericin (Sense, 5′-GGCTTATCCGATGCCCGACG-3′ (SEQ ID NO: 7); Antisense, 5′-TCTGTAGGTGTAGGTGCTTCCC-3′ (SEQ ID NO: 8)), and DUOX (Sense, 5′-GCTGCACGCCAACCACAAGAGACT-3′ (SEQ ID NO: 9); Antisense, 5′-CACGCGCAGCAGGATGTAAGGTTT-3′ (SEQ ID NO: 10)) were used, and as a control group, Rp49 (Sense, 5′-AGATCGTGAAGAAGCGCACCAAG-3′ (SEQ ID NO: 11); Antisense, 5′-CACCAGGAACTTCTTGAATCCGG-3′ (SEQ ID NO: 12)) was used. SYBR green analysis was conducted by an ABI PRISM 7700 system (PE Applied Biosystems, Foster City, Calif., USA) according to the manufacturer's instructions. All of the samples were repeated three times and analyzed, and a detected amount of mRNA was normalized with mRNA in the control group. Normalized data was used to quantify the relative amount of mRNA according to cycling threshold analysis. Targeted gene expression was expressed as the relative amount of expression.

gut cells = conditions: in vivo
Protocol: To measure cell apoptosis in gut cells caused by a long-term exposure to uracil, genetically different germ-free adult Drosophila (5 to 6 days old) were maintained on the standard corn meal agar media with a supplemental 1 nM of uracil for 20 days.
Midguts of female Drosophila (20 days old) collected above were used for the analysis of cell apoptosis. Midguts were dissected in PBS, and cell apoptosis analysis was conducted by terminal deoxynucleotidyl transferase (TdT)-mediated dUDP nick end labeling method as disclosed in the previous research (Ryu et al., Science 319, pp. 777-782, 2008).
The cell apoptotic index was indicated by dividing the number of apoptotic cells with respect to the total number of cells and multiplying the value by 100.

Ce-DUOX1 = test: ROS (DUOX-dependent H2O2) measurement in C. elegans; assay type: in vivo; conditions: uracil-containing media, 2 hours
Description: C. elegans were raised and maintained as disclosed in the previous research (Chavez et al., Infect Immun 77, pp. 4983-4989, 2009). As disclosed in the previous research, L1 nematodes were fed with bacteria containing Ce-DUOX1-RNAi vectors throughout the step L4 to introduce Ce-DUOX1-RNAi (Chavez et al., Infect Immun 77, pp. 4983-4989, 2009). Standard feeding system RNAi process using Ce-DUOX1-RNAi may cause a developmental disability which indicates a serious level of mortality. As disclosed in the previous research, to give a partial knock-down effect, Ce-DUOX1-RNAi bacteria were mixed with bacteria containing control RNAi at a ratio of 1:70. In the early adult stage, nematodes were obtained and washed with M9 minimal media. Nematodes (about 200 to 300 individuals) were placed in a 96-well plate comprising uracil-containing media ([…]) at 20° C. for 2 hours.
DUOX-dependent H2O2, as basically disclosed in the previous research (Chavez et al., Infect Immun 77, pp. 4983-4989, 2009), was measured at room temperature for 2 hours following addition of […] of Amplex UltraRed solution (Invitrogen) and […] of reacting buffer including 0.2 units/mL of horseradish peroxidase (Sigma). Fluorescence of each sample was measured by fluorescent microplate readers at 530 nm of excitation wavelength and 590 nm of emission wavelength. […]

## O=c1cc[nH]c(=O)[nH]1 [uracil]
germ-free Drosophila; germ-free control flies, uracil-containing vs normal food
  host lethality / mortality after long-term ingestion of uracil: lethality of control flies in a dose-dependent manner; also recorded: statistically significant difference in mortality
germ-free Drosophila; in vivo
  uracil-induced host pathology in PLCβ−/− or DUOX-RNAi flies: completely absent
p38
  p38 MAPK activation: p38 MAPK activation
E. carotovora-pyrE::Tn5
  prolonged midgut persistence of URA− pathogens: abolished
IMD pathway
  gut IMD pathway activation leading to AMP production: unable to activate the gut IMD pathway
Gut cells
  gut cell apoptosis after long-term ingestion of uracil: Extensive apoptosis in gut cells
Ce-DUOX1
  DUOX-dependent ROS generation in C. elegans: able to activate DUOX-dependent ROS generation
